Patent US9572890B2, “Oral formulations of mitochondrially-targeted antioxidants and their preparation and use” (MITOTECH SA, priority 2011, dated 2017)

Assay: Storage stability of reduced SkQ1H2 formulations (Example 9)
Assay type: physicochemical
Protocol: The sample also can be stabilized by being dissolved in any deoxygenated anhydrous and aprotic solvents.
The stability of SkQ1H2 in the prepared composition was investigated by storage at 4° C. in darkness (Table 12).
The stability of SkQ1H2 in the prepared composition was investigated by storage at 60° C. in darkness (Table 13).
The yield of SkQ1H2 was 2 g (approx 100% yield) in the form of light powder. The stability results are shown below (Table 14 and Table 15).
The stability of SkQ1H2 in the prepared composition was investigated by storage at 60° C. in darkness (Table 16).
The stability of SkQ1H2 in the compositions prepared by both methods was investigated by storage at 60° C. and 4° C. in darkness (Table 17).
The stability of SkQ1H2 in compositions prepared by Methods 3 and 4 was investigated by storage at 60° C. in darkness (Table 18).
The stability of SkQ1H2 in compositions prepared by both methods was investigated by storage at 60° C. in darkness (Table 18).
The stability of SkQ1H2 in the prepared solution was investigated by storage at RT in darkness (Table 19).
The stability of SkQ1H2 in the prepared solution was investigated by storage at 60° C. in darkness (Table 20).

[1] = SkQ1H2 in 55% EtOH in water, 0 h
[2] = SkQ1H2 in 55% EtOH in water, 0.5 h
[3] = SkQ1H2 in 55% EtOH in water, 1.48 h
[4] = SkQ1H2 in 55% EtOH in water, 2.8 h
[5] = SkQ1H2 in 55% EtOH in water, 3.44 h
[6] = SkQ1H2 in 55% EtOH in water, 4.37 h
[7] = SkQ1H2 in 55% EtOH in water, 23.23 h
[8] = SkQ1H2 in 55% EtOH in water, 143.45 h (~6 days)
[9] = SkQ1H2 in CH2Cl2, 143.45 h (~6 days)
[10] = SkQ1H2 powder, Storage at 60° C., day 0
[11] = SkQ1H2 powder, Storage at 60° C., day 5
[12] = SkQ1H2 powder, Storage at 60° C., day 7
[13] = SkQ1H2 powder, Storage at 60° C., day 11
[14] = SkQ1H2 powder, Storage at 60° C., day 17
[15] = SkQ1H2 powder, Storage at 60° C., day 28
[16] = SkQ1H2 powder, Storage at RT, day 0
[17] = SkQ1H2 powder, Storage at RT, day 3
[18] = SkQ1H2 powder, Storage at RT, day 5
[19] = SkQ1H2 powder, Storage at RT, day 7
[20] = SkQ1H2 powder, Storage at RT, day 11
[21] = SkQ1H2 powder, Storage at RT, day 17
[22] = SkQ1H2 powder, Storage at RT, day 28
[23] = SkQ1H2 with ascorbic acid (5 eq) and sorbite (30 wt parts), solid, time not given
[24] = SkQ1H2 with ascorbic acid (5 eq) and sorbite in 30% 1,2-propylene glycol, 60° C. in darkness, day 0
[25] = SkQ1H2 with ascorbic acid (5 eq) and sorbite in 30% 1,2-propylene glycol, 60° C. in darkness, day 3
[26] = SkQ1H2 with ascorbic acid (5 eq) and sorbite in 30% 1,2-propylene glycol, 60° C. in darkness, day 14
[27] = SkQ1H2 with ascorbic acid (5 eq) and sorbite in 30% 1,2-propylene glycol, 60° C. in darkness, day 27
[28] = SkQ1H2 with ascorbic acid (10 eq) in 55% EtOH, RT in darkness, 0 h
[29] = SkQ1H2 with ascorbic acid (10 eq) in 55% EtOH, RT in darkness, 1.5 h
[30] = SkQ1H2 with ascorbic acid (10 eq) in 55% EtOH, RT in darkness, 68 h (~3 days)
[31] = SkQ1H2 with ascorbic acid (10 eq) in 55% EtOH, RT in darkness, 118 h (~5 days)
[32] = SkQ1H2 with ascorbic acid (10 eq) in 55% EtOH, RT in darkness, 165 h (~7 days)
[33] = SkQ1H2 with sorbite (30 wt parts), solid, 60° C. in darkness, day 0
[34] = SkQ1H2 with sorbite (30 wt parts), solid, 60° C. in darkness, day 4
[35] = SkQ1H2 with sorbite (30 wt parts), solid, 60° C. in darkness, day 7
[36] = SkQ1H2 with sorbite (30 wt parts), solid, 60° C. in darkness, day 11
[37] = SkQ1H2 with sorbite (30 wt parts), solid, 60° C. in darkness, day 15
[38] = SkQ1H2 with sorbite (30 wt parts), solid, 60° C. in darkness, day 28

For `Cc1c(O)cc(CCCCCCCCCC[P+](c2ccccc2)(c2ccccc2)c2ccccc2)c(O)c1C` [SkQ1H2], which “stability of isolated SkQ1H2 light powder” value (1 month at RT or several months at 4° C. in darkness under inert atmosphere without humidity access) is on record?
Its value is “excellent stability”.

And the “SkQ1, %” value [1]?
The value was 2.21%.

And the “SkQ1H2, %” value [1]?
Its value is 97.79%.

And the “SkQ1, %” value [2]?
The value was 9.21%.

And the “SkQ1H2, %” value [2]?
Its value is 90.79%.

And the “SkQ1, %” value [3]?
Its value is 14.76%.

What about the “SkQ1H2, %” value [3] of the same compound?
The value was 85.24%.

What about the “SkQ1, %” value [4] of the same compound?
The value was 32.57%.

And the “SkQ1H2, %” value [4]?
Its value is 67.43%.

And the “SkQ1, %” value [5]?
The value was 47.83%.

What about the “SkQ1H2, %” value [5] of the same compound?
Its value is 52.17%.

And the “SkQ1, %” value [6]?
The value was 56.57%.

And the “SkQ1H2, %” value [6]?
The value was 43.43%.

And the “SkQ1, %” value [7]?
Its value is 82.39%.

And the “SkQ1H2, %” value [7]?
The value was 16.55%.

What about the “SkQ1, %” value [8] of the same compound?
The value was 77.23%.

And the “SkQ1H2, %” value [8]?
The value was 9.63%.

And the “SkQ1, %” value (SkQ1H2 in CH2Cl2, 0 h)?
Its value is 2.21%.

And the “SkQ1H2, %” value (SkQ1H2 in CH2Cl2, 0 h)?
Its value is 97.79%.

What about the “SkQ1, %” value (SkQ1H2 in CH2Cl2, 0.5 h) of the same compound?
Its value is 4.01%.

What about the “SkQ1H2, %” value (SkQ1H2 in CH2Cl2, 0.5 h) of the same compound?
Its value is 95.99%.

And the “SkQ1, %” value (SkQ1H2 in CH2Cl2, 1.48 h)?
Its value is 5.68%.

What about the “SkQ1H2, %” value (SkQ1H2 in CH2Cl2, 1.48 h) of the same compound?
Its value is 94.32%.

And the “SkQ1, %” value (SkQ1H2 in CH2Cl2, 2.8 h)?
Its value is 6.42%.

And the “SkQ1H2, %” value (SkQ1H2 in CH2Cl2, 2.8 h)?
The value was 93.58%.

What about the “SkQ1, %” value (SkQ1H2 in CH2Cl2, 3.44 h) of the same compound?
Its value is 5.57%.

And the “SkQ1H2, %” value (SkQ1H2 in CH2Cl2, 3.44 h)?
Its value is 94.43%.

And the “SkQ1, %” value (SkQ1H2 in CH2Cl2, 4.37 h)?
Its value is 7.18%.

What about the “SkQ1H2, %” value (SkQ1H2 in CH2Cl2, 4.37 h) of the same compound?
The value was 92.82%.

What about the “SkQ1, %” value (SkQ1H2 in CH2Cl2, 23.23 h) of the same compound?
Its value is 9.30%.

What about the “SkQ1H2, %” value (SkQ1H2 in CH2Cl2, 23.23 h) of the same compound?
Its value is 89.61%.

What about the “SkQ1, %” value [9] of the same compound?
Its value is 16.53%.

What about the “SkQ1H2, %” value [9] of the same compound?
The value was 82.11%.

And the “SkQ1, %” value [10]?
Its value is 0.75%.

What about the “SkQ1H2, %” value [10] of the same compound?
The value was 99.2%.

And the “SkQ1, %” value [11]?
Its value is 0.55%.

What about the “SkQ1H2, %” value [11] of the same compound?
The value was 99.45%.

What about the “SkQ1, %” value [12] of the same compound?
Its value is 0%.

And the “SkQ1H2, %” value [12]?
Its value is 100%.

And the “SkQ1, %” value [13]?
Its value is 0.19%.

And the “SkQ1H2, %” value [13]?
Its value is 99.76%.

And the “SkQ1, %” value [14]?
The value was 1.24%.

What about the “SkQ1H2, %” value [14] of the same compound?
Its value is 98.61%.

What about the “SkQ1, %” value [15] of the same compound?
Its value is 11.04%.

What about the “SkQ1H2, %” value [15] of the same compound?
Its value is 88.7%.

What about the “SkQ1, %” value [16] of the same compound?
Its value is 1.01%.

What about the “SkQ1H2, %” value [16] of the same compound?
Its value is 98.99%.

What about the “SkQ1, %” value [17] of the same compound?
Its value is 0.66%.

What about the “SkQ1H2, %” value [17] of the same compound?
Its value is 99.34%.

What about the “SkQ1, %” value [18] of the same compound?
The value was 0.63%.

And the “SkQ1H2, %” value [18]?
Its value is 99.37%.

And the “SkQ1, %” value [19]?
The value was 0.71%.

And the “SkQ1H2, %” value [19]?
The value was 99.14%.

What about the “SkQ1, %” value [20] of the same compound?
Its value is 0.83%.

What about the “SkQ1H2, %” value [20] of the same compound?
Its value is 99.12%.

What about the “SkQ1, %” value [21] of the same compound?
Its value is 0.28%.

What about the “SkQ1H2, %” value [21] of the same compound?
The value was 99.49%.

What about the “SkQ1, %” value [22] of the same compound?
Its value is 0.50%.

What about the “SkQ1H2, %” value [22] of the same compound?
The value was 99.45%.

What about the “number of impurities with content >0.5%” value (SkQ1H2 with ascorbic acid (5 eq) and sorbite (30 wt parts), solid, 1 year at 4° C. in darkness) of the same compound?
Its value is 0.

What about the “number of impurities with content >0.5%” value (SkQ1H2 with ascorbic acid (5 eq) and sorbite (30 wt parts), solid, 20 days at 60° C. in darkness) of the same compound?
The value was 0.

And the “SkQ1, %” value [23]?
Its value is 1.209%.

What about the “SkQH2, %” value [23] of the same compound?
The value was 97.753%.

And the “SkQ1, %” value [24]?
Its value is 0.18%.

And the “SkQH2, %” value [24]?
The value was 99.82%.

And the “SkQ1, %” value [25]?
Its value is 1.03%.

And the “SkQH2, %” value [25]?
Its value is 98.67%.

What about the “SkQ1, %” value [26] of the same compound?
Its value is 28.34%.

And the “SkQH2, %” value [26]?
The value was 69.51%.

What about the “SkQ1, %” value [27] of the same compound?
Its value is 51.9%.

What about the “SkQH2, %” value [27] of the same compound?
Its value is 3.2%.

And the “SkQ1, %” value [28]?
The value was 0.27%.

And the “SkQ1H2, %” value [28]?
Its value is 99.73%.

And the “SkQ1, %” value [29]?
The value was 0.93%.

And the “SkQ1H2, %” value [29]?
The value was 99.07%.

What about the “SkQ1, %” value [30] of the same compound?
The value was 0.59%.

What about the “SkQ1H2, %” value [30] of the same compound?
Its value is 99.05%.

What about the “SkQ1, %” value [31] of the same compound?
The value was 0.31%.

What about the “SkQ1H2, %” value [31] of the same compound?
Its value is 99.69%.

What about the “SkQ1, %” value [32] of the same compound?
Its value is 0.26%.

What about the “SkQ1H2, %” value [32] of the same compound?
Its value is 99.74%.

What about the “SkQ1, %” value [33] of the same compound?
Its value is 0.61%.

What about the “SkQ1H2, %” value [33] of the same compound?
The value was 99.01%.

What about the “SkQ1, %” value [34] of the same compound?
The value was 8.7%.

And the “SkQ1H2, %” value [34]?
The value was 90.8%.

What about the “SkQ1, %” value [35] of the same compound?
Its value is 9.4%.

And the “SkQ1H2, %” value [35]?
The value was 90.2%.

And the “SkQ1, %” value [36]?
The value was 10.7%.

What about the “SkQ1H2, %” value [36] of the same compound?
The value was 88.8%.

And the “SkQ1, %” value [37]?
Its value is 10.4%.

What about the “SkQ1H2, %” value [37] of the same compound?
Its value is 89.1%.

And the “SkQ1, %” value [38]?
The value was 5.3%.

What about the “SkQ1H2, %” value [38] of the same compound?
Its value is 42.9%.

And the “oxidation to SkQ1” value (exposed to air or wet atmosphere or dissolved in water or any protonic solvent)?
The value was “quickly oxides”.
